This is an account of results in US20050070719A1, “Inhibitors of dipeptidyl peptidase iv” (priority 2001, published 2005).

Structures can show the parent of a compound that is named as a salt.

For one assay, the target named is T1, DPP IV (Rattus norvegicus, UniProt P14740).
T1 construct: Add 25 uL of rat plasma or buffer to wells; from tissue; host or cells: rat plasma
Nature of the assay: Measuring DPP IV inhibition (rat plasma, fluorogenic peptide substrate). Conditions: substrate H-Gly-Pro-alpha methyl coumarin, 30 min, room temp. The class given is biochemical. The protocol:
Dilute 1 volume of rat plasma ([…] with sodium citrate) to 2.5 volumes assay buffer (25 mM HEPES, 140 mM NaCl, 1% BSA [added on the day of the assay]; pH 7.8) to yield approximately 350 micrograms total protein/well in a 96-well plate. […] Dilute the peptide substrate (H-Gly-Pro-alpha methyl coumarin, 10 mM stock in 100% DMSO) 1:100 in assay buffer. Compounds of this invention are diluted in 100% DMSO. Add 10 microliter of diluted compounds or DMSO vehicle to wells. Add 25 uL of rat plasma or buffer to wells. Add 25 uL MgCl2 to all wells. Vortex gently for 1 minute, then pre-incubate at room temp for 10 minutes. Start the reaction by adding 50 uL peptide substrate (no vortexing), and incubate the plate at room temp in the dark for 30 minutes. […] Read the plate at 380 nm (excitation) and 460 nm (emission).

Assay [1] has as its system MPTP-lesioned mouse model of Parkinson's disease. The assay can be described thus: In vivo reinnervation of the denervated striatum by nigrostriatal dopaminergic fibers (MPTP-lesioned mouse model of Parkinson's disease). Conditions: CD1 mice, MPTP 34 mg/kg i.p. days 1-5; compound 10 mg/kg s.c. once daily days 1-5; analysis day 7. The text has this: MPTP (N-methyl-4-phenyl-1,2,3,6-tetrahydropyridine) is a systemically available neurotoxin specific to nigrostriatal dopaminergic neurons, i.e. to the cells that degenerate in human Parkinson's disease. Administration of MPTP to mice leads to a selective partial destruction of the mesotelencephalic dopaminergic projection, and to a loss of dopamine and dopaminergic fibres in the corpus striatum, which is the main forebrain target of midbrain dopaninergic neurons.
Young adult male CD1 albino mice (Harlan-Sprague Dawley; 22-25 g) were dosed i.p. with the dopamine cell-specific neurotoxin N-methyl-4-phenyl-1,2,3,6-tetrahydropyridine (MPTP hydrochloride, calculated as 34 mg/kg free base), dissolved in saline at a concentration of 3.4 mg/ml free base once daily on days one to five. […]
Blinded analysis of TH fiber density in the central striatum was performed at 630× magnification. […] The percentage of sample field covered by TH positive processes and terminals was calculated using an image analysis program (“Simple,” Compix Inc., Pittsburgh, Pa.). The mean striatal innervation density was calculated for each group. The magnitude of striatal deafferentation due to the MPTP lesion was assessed by dividing the observed striatal innervation values obtained in MPTP/vehicle treated cases by the mean striatal innervation density in the Vehicle/Vehicle group and expressed as % loss. […]

T1 sequence (P14740 37-767 limits assumed): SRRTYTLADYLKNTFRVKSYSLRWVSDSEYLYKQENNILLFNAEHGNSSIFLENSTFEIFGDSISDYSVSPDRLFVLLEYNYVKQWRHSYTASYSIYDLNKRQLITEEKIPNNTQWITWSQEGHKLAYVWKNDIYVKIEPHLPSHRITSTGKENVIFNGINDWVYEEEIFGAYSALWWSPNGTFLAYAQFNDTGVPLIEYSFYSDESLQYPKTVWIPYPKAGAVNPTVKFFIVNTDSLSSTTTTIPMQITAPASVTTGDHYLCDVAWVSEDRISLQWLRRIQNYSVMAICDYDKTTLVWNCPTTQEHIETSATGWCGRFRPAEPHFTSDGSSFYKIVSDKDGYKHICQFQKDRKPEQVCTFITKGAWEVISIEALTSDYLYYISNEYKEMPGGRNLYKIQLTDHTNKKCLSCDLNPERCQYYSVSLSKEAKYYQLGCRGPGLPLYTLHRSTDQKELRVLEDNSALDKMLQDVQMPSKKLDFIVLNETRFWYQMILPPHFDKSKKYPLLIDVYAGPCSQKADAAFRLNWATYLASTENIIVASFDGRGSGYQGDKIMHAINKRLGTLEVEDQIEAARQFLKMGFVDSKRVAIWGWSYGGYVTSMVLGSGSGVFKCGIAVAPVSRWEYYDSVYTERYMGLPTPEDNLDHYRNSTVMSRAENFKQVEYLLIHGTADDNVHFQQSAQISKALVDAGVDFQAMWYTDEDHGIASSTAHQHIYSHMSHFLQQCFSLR

A word on the IC50: it is the concentration at which inhibition is half-maximal. Higher therefore signals weaker potency. The compound `Cl.N#CC1CCCN1C(=O)C1CC2CCCCC2N1` (centres unmarked) [Example 1, 1-(octahydroindole-2-carbonyl)pyrrolidine-2-carbonitrile hydrochloride] had an IC50 against DPP IV of 13.9 nM. For the same compound, the “% protection of striatal tyrosine hydroxylase-immunoreactive fibres” value in assay [1] was determined as 32.5%.
`N#CC1CCCN1C(=O)C1NCC2CC21` (centres unmarked) [Example 2, 1-(3-azabicyclo[3.1.0]hexane-2-carbonyl)pyrrolidine-2-carbonitrile hydrochloride] returned an IC50 at DPP IV of 60.7 nM.
Same read-out and setting: the figure for `N#CC1CC(F)CN1C(=O)C1CC2CCCCC2N1` (centres unmarked) [Example 3, 2-cyano-4-fluoro-1-(octahydroindole-2-carbonyl)-pyrrolidine hydrogen chloride] is 1.65 nM; for `N#C[C@@H]1CCCN1C(=O)[C@H]1NCC2CCCCC21` (some centres unmarked) [Example 4, 2-(L)-Cyano-(octahydro-isoindolyl)pyrrolidine hydrogen chloride] it is 551 nM.
Still for that read-out and setting: to `N#CC1CSCN1C(=O)C1CC2CCCCC2N1` (centres unmarked) [Example 5, 3-(octahydroindole-2-carbonyl)thiazolidine4-carbonitrile hydrochloride] belongs 3.8 nM.
The same measure, in the same setting: the figure for `N[C@H](C(=O)N1CC=CC1)C1CCCCC1` [Example 6, 1-(L-α-cyclohexylglycyl)-3-pyrroline hydrogen chloride] is 1880 nM; for `N[C@H](C(=O)N1CCCCC1)C1CCCCC1` [Example 8, 1-(L-α-cyclohexylglycyl)piperidine hydrogen chloride] it is 22200 nM; for `O=C(C1CC2CCCCC2N1)N1CCCC1` (centres unmarked) [Example 10, 1-(octahydroindole-2-carbonyl)pyrrolidine hydrochloride] it is 10000 nM.
`O=C(CNC12CC3CC(CC(C3)C1)C2)N1CCSC1` [Example 12, 1-[2-(adamant-1-ylamino)acetyl]-3-thiopyrrolidine] yielded an IC50 against DPP IV of 4820 nM.
With `CCC(C)[C@H](N)C(=O)N1CC(F)C[C@H]1C#N` (some centres unmarked) [Example 13, 2-cyano-4-fluoro-1-(sec-butyl)glycylpyrrolidine hydrogen chloride], the IC50 at DPP IV was 6.2 nM.
At DPP IV, `N#C[C@@H]1CC(F)CN1C(=O)C(N)C1CCCCC1` (some centres unmarked) [Example 14, 2-Cyano-4-fluoro-1-cyclohexylglycylpyrrolidine hydrogen chloride] gave an IC50 of 6.5 nM. This IC50 and that of the compound before are within 1.5-fold of each other.
As to `N#CC1CCN1C(=O)C(N)C1CCCCC1` (centres unmarked) [Example 16, 1-(2-amino-2-cyclohexyl-acetyl)azetidine-2-carbonitrile], half-maximal inhibition on DPP IV (IC50) was put at 1200 nM.
On the same count and under the same terms, the figure for `N#CC1CCN1C(=O)C1CCCN1` (centres unmarked) [Example 17, 1-(pyrrolidine-2-carbonyl)azetidine-2-carbonitrile] is 1100 nM.
Same read-out and setting: to `N#CC1CCN1C(=O)CNC12CC3CC(CC(C3)C1)C2` (centres unmarked) [Example 18, 1-[2-(adamant-1-ylamino)acetyl]-azetidine-2-carbonitrile] belongs 223 nM.
`Cl.N#CC1CCN1C(=O)C1CC2CCCCC2N1` (centres unmarked) [Example 20, 1-(octahydroindole-2-carbonyl)azetidine-2-carbonitrile hydrochloride] gave an IC50 against DPP IV of 178 nM. Also, in assay [1], the “% protection of striatal tyrosine hydroxylase-immunoreactive fibres” value is listed as 32.6%.
